Assay results reported in patent publication US9822089B2, “R type of resveratrol dimer, preparation process therefor and purpose thereof in lowering blood sugar level” (priority 2013, dated 2017).

Legend:
[1] = tested on: sucrose-induced high blood sugar level of a mouse; experiment: orally-administered sucrose tolerance test for normal mice; assay type: in vivo; details: for Blood sugar concentration: drug 0.33 mg/ml suspension, 0.3 ml per 10 g intragastric 30 min before, x ± s, n = 10; for area under the sucrose tolerance test curve: FIG. 1, negative control group 21.0 mmol h/L; for blood glucose-lowering rate: compared with the negative control group; for lowering of sucrose-induced high blood sugar level of a mouse (in words): sucrose load
Procedure: A mean body weight of mice was 22 g to 25 g. The mice were randomly divided into 6 groups, and each group included 10 animals. Each group of animals was intragastrically administered with a drug after 12 hours of fasting.
For a normal control group, a 0.5% CMC-Na solution whose volume is equal to that of a positive control group was administered.
For a negative control group, a 0.5% CMC-Na solution whose volume is equal to that of a positive control group was administered.
For an acarbose group, a 0.33 mg/ml acarbose suspension that was prepared by using a 0.5% CMC-Na solution was administered at a dosage of 0.3 ml per 10 g of weight.
For a TVN racemate group, a 0.33 mg/ml TVN racemate suspension that was prepared by using a 0.5% CMC-Na solution was administered at a dosage of 0.3 ml per 10 g of weight.
For a (S,S)-TVN group, a 0.33 mg/ml (S,S)-TVN suspension that was prepared by using a 0.5% CMC-Na solution was administered tat a dosage of 0.3 ml per 10 g of weight.
For a (R,R)-TVN group, a 0.33 mg/ml (R,R)-TVN suspension that was prepared by using a 0.5% CMC-Na solution was administered at a dosage of 0.3 ml per 10 g of weight.
After 30 min, animals in the groups other than the normal group were intragastrically administered with a 6.7% sucrose solution at a dosage of 0.3 ml per 10 g of weight, and animals in the normal group were intragastrically administered with water whose volume is equal to that of the sucrose solution. Orbital blood sampling was separately performed at four time points, namely 0 h, 0.5 h, 1 h, and 2 h after intragastric administration of the sucrose solution to the animals. Then, 2 μL of blood serum was taken after centrifugation and added into a 96-pore plate. Thereafter, 200 μL of a reagent from a glucose assay kit was further added thereinto and a 505 nm micro-plate reader was used to measure a value of absorbance. A blood sugar concentration was obtained from a standard curve. Refer to the table below:
All data was represented by using a mean value±a standard deviation (x±s). SPSS11.5 software was used for analysis, and data comparison was performed by means of a one-way analysis of variance. P<0.05 represents that there was a significant difference; and P<0.01 represents that there was an extremely significant difference.

alpha-glucosidase = details: in vitro; multiple of the activity of acarbose; cited from earlier work
[2] = 0.5 h after intragastric sucrose

Row | SMILES | Blood sugar concentration ([1]; 0 h after intragastric sucrose) [mmol/L] | Blood sugar concentration [1, 2] [mmol/L] | Blood sugar concentration ([1]; 1 h after intragastric sucrose) [mmol/L] | Blood sugar concentration ([1]; 2 h after intragastric sucrose) [mmol/L] | area under the sucrose tolerance test curve [1] [mmol·h/L] | blood glucose-lowering rate ([1]; at 0.5 h) [%] | blood glucose-lowering rate ([1]; at 1 h) [%] | lowering of sucrose-induced high blood sugar level of a mouse (in words) [1] | alpha-glucosidase inhibitory activity relative to acarbose (alpha-glucosidase) [times]
1 | Oc1ccc(C2Oc3ccc(/C=C/c4cc(O)cc(O)c4)cc3C2c2cc(O)cc(O)c2)cc1 (racemic) [TVN racemate, trans-δ-viniferin] | 7.75 ± 1.57 | 10.34 ± 1.75 | 9.07 ± 1.55 | 8.83 ± 1.46 | 18.3 | 13.98 | 14.60 | has a hypoglycemic activity between hypoglycemic activities of the both | 254
2 | Oc1ccc([C@@H]2Oc3ccc(/C=C/c4cc(O)cc(O)c4)cc3[C@H]2c2cc(O)cc(O)c2)cc1 [(R,R)-TVN, (7R,8R)-trans-δ-viniferin] | – | – | – | – | 16.7 | 30.20 | 22.79 | can significantly lower a sucrose-induced high blood sugar level of a mouse, and has a better effect than the TVN racemate | –
3 | Oc1ccc([C@H]2Oc3ccc(/C=C/c4cc(O)cc(O)c4)cc3[C@@H]2c2cc(O)cc(O)c2)cc1 [(S,S)-TVN, (7S,8S)-trans-δ-viniferin] | – | – | – | – | 20.9 | 0.08 | 3.01 | cannot significantly lower a sucrose-induced high blood sugar level of a mouse | –
4 | C[C@H]1O[C@H](O[C@H]2[C@H](O)[C@@H](O)[C@@H](O[C@H]3[C@H](O)[C@@H](O)C(O)O[C@@H]3CO)O[C@@H]2CO)[C@H](O)[C@@H](O)[C@@H]1N[C@H]1C=C(CO)[C@@H](O)[C@H](O)[C@H]1O (some centres unmarked) [Acarbose, acarbose] | 7.94 ± 1.25 | 9.74 ± 1.45 | 8.32 ± 1.50 | 8.54 ± 1.04 | – | 18.97 | 21.66 | – | –
